From PubChem BioAssay AID192 (DTP/NCI, 2004)
Where “and” joins values, the source holds several entries; their conditions need not be identical. Equal entries are not always repeated. Inconclusive results and toxic doses are left out.

System: BDF1 mice, B16 melanoma ip, median survival T/C
Test: NCI In Vivo Anticancer Drug Screen. Data for tumor model B16 Melanoma (intraperitoneal) in B6D2F1 (BDF1) mice
Conditions: endpoint: median survival time, higher = longer survival
How it was run: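 Vehicle-treated animals serve as the reference (C); treated animals (T) are scored for survival or tumor size after tumor transplantation.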

[1] = dose: 12.5 mg/kg/injection, schedule: Q01DX009 (ip), vehicle: saline with Tween-80
[2] = dose: 25.0 mg/kg/injection, schedule: Q01DX009 (ip), vehicle: saline with Tween-80
[3] = dose: 50.0 mg/kg/injection, schedule: Q01DX009 (ip), vehicle: saline with Tween-80
[4] = dose: 100.0 mg/kg/injection, schedule: Q01DX009 (ip), vehicle: saline with Tween-80
[5] = dose: 200.0 mg/kg/injection, schedule: Q01DX009 (ip), vehicle: saline with Tween-80
[6] = dose: 6.25 mg/kg/injection, schedule: Q01DX009 (ip), vehicle: saline
[7] = dose: 12.5 mg/kg/injection, schedule: Q01DX009 (ip), vehicle: saline
[8] = dose: 25.0 mg/kg/injection, schedule: Q01DX009 (ip), vehicle: saline
[9] = dose: 50.0 mg/kg/injection, schedule: Q01DX009 (ip), vehicle: saline
[10] = dose: 50.0 mg/kg/injection, schedule: Q01DX009 (ip), vehicle: Klucel (hydroxypropylcellulose) (HPC)
[11] = dose: 100.0 mg/kg/injection, schedule: Q01DX009 (ip), vehicle: Klucel (hydroxypropylcellulose) (HPC)
[12] = dose: 200.0 mg/kg/injection, schedule: Q01DX009 (ip), vehicle: Klucel (hydroxypropylcellulose) (HPC)
[13] = dose: 100.0 mg/kg/injection, schedule: Q01DX009 (ip), vehicle: saline
[14] = dose: 200.0 mg/kg/injection, schedule: Q01DX009 (ip), vehicle: saline
[15] = dose: 400.0 mg/kg/injection, schedule: Q01DX009 (ip), vehicle: saline
[16] = dose: 12.5 mg/kg/injection, schedule: Q01DX009 (ip), vehicle: Klucel (hydroxypropylcellulose) (HPC)
[17] = dose: 25.0 mg/kg/injection, schedule: Q01DX009 (ip), vehicle: Klucel (hydroxypropylcellulose) (HPC)
[18] = dose: 3.13 mg/kg/injection, schedule: Q01DX009 (ip), vehicle: water
[19] = dose: 400.0 mg/kg/injection, schedule: Q01DX009 (ip), vehicle: saline with Tween-80

SMILES: ClC1CCCC[N-]1.ClC1CCCC[N-]1.[Cl][Pt+2][Cl] (stereo not given)
- T/C [1]: 91 % of control
- T/C [2]: 97 % of control
- T/C [3]: 89 % of control
- T/C [4]: 108 % of control
- T/C [5]: 105 % of control

SMILES: CN(C)C(=O)c1cccc(COc2ccc(N3C(N)=NC(N)=NC3(C)C)cc2Cl)c1
- T/C (dose: 1.56 mg/kg/injection, schedule: Q01DX009 (ip), vehicle: saline): 120 % of control
- T/C (dose: 3.13 mg/kg/injection, schedule: Q01DX009 (ip), vehicle: saline): 120 % of control
- T/C [6]: 117 % of control
- T/C [7]: 104 % of control and 105 % of control
- T/C [8]: 104 % of control and 117 % of control
- T/C [9]: 100 % of control

SMILES: c1ccc2c(CC3=NCCN3)cccc2c1
- T/C (dose: 6.25 mg/kg/injection, schedule: Q01DX009 (ip), vehicle: saline with Tween-80): 102 % of control
- T/C [1]: 100 % of control
- T/C [2]: 102 % of control

SMILES: CCC(C)C(NC(=O)OC(C)(C)c1ccc(-c2ccccc2)cc1)C(=O)O (stereo not given)
- T/C [3]: 94 % of control
- T/C [4]: 94 % of control
- T/C [5]: 91 % of control

SMILES: O=c1oc(-c2ccco2)nc2ccccc12
- T/C [10]: 112 % of control
- T/C [11]: 106 % of control
- T/C [12]: 112 % of control

SMILES: OCC1(CO)COC2(CCCCC2)N1
- T/C [7]: 110 % of control
- T/C [8]: 116 % of control
- T/C [9]: 109 % of control
- T/C [13]: 103 % of control
- T/C [14]: 112 % of control
- T/C [15]: 108 % of control

SMILES: O=C(Nc1cc(C(F)(F)F)ccc1Cl)c1ccc(Cl)cc1Cl
- T/C [4]: 88 % of control
- T/C [5]: 88 % of control

SMILES: O=C(Nc1cc(C(F)(F)F)ccc1Cl)c1cccc(C(=O)Nc2cc(C(F)(F)F)ccc2Cl)c1
- T/C [16]: 101 % of control
- T/C [17]: 101 % of control
- T/C [10]: 101 % of control

SMILES: COc1cccc2c1C(=O)c1c(O)c3c(c(O)c1C2=O)C[C@@](O)(/C(C)=N\O)C[C@@H]3OC1CC(N)C(O)C(C)O1 (stereo not given in full)
- T/C [18]: 115 % of control
- T/C (dose: 6.25 mg/kg/injection, schedule: Q01DX001 (ip), vehicle: water): 91 % of control
- T/C (dose: 12.5 mg/kg/injection, schedule: Q01DX001 (ip), vehicle: water): 213 % of control
- T/C (dose: 12.5 mg/kg/injection, schedule: Q01DX009 (ip), vehicle: water): 187 % of control
- T/C (dose: 25.0 mg/kg/injection, schedule: Q01DX001 (ip), vehicle: water): 207 % of control
- T/C (dose: 50.0 mg/kg/injection, schedule: Q01DX001 (ip), vehicle: water): 158 % of control

SMILES: CC(O)COc1ccc(OCc2ccccc2)cc1 (stereo not given)
- T/C [11]: 106 % of control
- T/C [12]: 109 % of control
- T/C (dose: 400.0 mg/kg/injection, schedule: Q01DX009 (ip), vehicle: Klucel (hydroxypropylcellulose) (HPC)): 100 % of control

SMILES: O=C(Nc1ccccc1Cl)c1ccc([N+](=O)[O-])cc1
- T/C [4]: 100 % of control
- T/C [5]: 105 % of control
- T/C [19]: 97 % of control

SMILES: CS(=O)(=O)O
- T/C [13]: 106 % of control
- T/C [14]: 113 % of control
- T/C [15]: 123 % of control

SMILES: CC12CCC(C1)C(C)(C)C2NCCCN1C(=O)c2ccc3c4c(ccc(c24)C1=O)C(=O)N(CCCNC1C2(C)CCC(C2)C1(C)C)C3=O (stereo not given)
- T/C (dose: 6.25 mg/kg/injection, schedule: Q01DX009 (ip), vehicle: Klucel (hydroxypropylcellulose) (HPC)): 100 % of control
- T/C [16]: 96 % of control
- T/C [17]: 106 % of control and 109 % of control

SMILES: CCCC(C(=O)OCCN(CC)CC)(c1ccccc1)c1ccccc1
- T/C (dose: 3.12 mg/kg/injection, schedule: Q01DX009 (ip), vehicle: saline): 95 % of control
- T/C [6]: 102 % of control
- T/C [7]: 100 % of control
- T/C [8]: 97 % of control

SMILES: CCC(C(N)=O)C1=CCCCC1 (stereo not given)
- T/C [11]: 105 % of control
- T/C [12]: 101 % of control

SMILES: Cc1cc2ncn(CO)c2cc1C
- T/C [4]: 102 % of control
- T/C [5]: 97 % of control
- T/C [19]: 97 % of control

SMILES: CC(C)(C)OC(=O)NC(CCCCNC(=O)OCc1ccccc1)C(=O)O (stereo not given)
- T/C [3]: 107 % of control
- T/C [4]: 90 % of control

SMILES: O=P(OCc1ccccc1)(OCc1ccccc1)C(Nc1ccccc1)c1ccccc1 (stereo not given)
- T/C [10]: 97 % of control
- T/C [11]: 90 % of control
- T/C [12]: 90 % of control

SMILES: OCC(O)COCC#Cc1ccccc1 (stereo not given)
- T/C [6]: 118 % of control
- T/C [7]: 114 % of control
- T/C [8]: 110 % of control
- T/C [10]: 87 % of control
- T/C [9]: 101 % of control

SMILES: O=[N+]([O-])c1ccc2ccccc2c1-c1c([N+](=O)[O-])ccc2ccccc12
- T/C [3]: 97 % of control
- T/C [4]: 101 % of control
- T/C [5]: 97 % of control

SMILES: O=C1c2ccccc2C(Cl)=C(Cl)C1(Cl)Cl
- T/C (dose: 12.5 mg/kg/injection, schedule: Q04DX003 (ip), vehicle: Klucel (hydroxypropylcellulose) (HPC)): 87 % of control
- T/C (dose: 25.0 mg/kg/injection, schedule: Q04DX003 (ip), vehicle: Klucel (hydroxypropylcellulose) (HPC)): 92 % of control

SMILES: O=C(O)CCN1C(=O)c2ccccc2C1=O
- T/C [3]: 102 % of control
- T/C [4]: 95 % of control
- T/C [5]: 90 % of control

SMILES: CCCC1CC[N-]CC1.CCCC1CC[N-]CC1.CCCC1CC[N-]CC1.CCCC1CC[N-]CC1.CS(C)=O.CS(C)=O.[Cl-].[Cl-].[Cl-].[Cl-].[Cl][Rh][Cl].[Rh+3]
- T/C (dose: 1.56 mg/kg/injection, schedule: Q01DX009 (ip), vehicle: water): 105 % of control
- T/C [18]: 107 % of control
- T/C (dose: 6.25 mg/kg/injection, schedule: Q01DX009 (ip), vehicle: water): 120 % of control
- T/C (dose: 25.0 mg/kg/injection, schedule: Q01DX009 (ip), vehicle: water): 124 % of control

SMILES: O=C(N[C@H](CO)[C@H](O)c1ccc([N+](=O)[O-])cc1)C(Cl)Cl
- T/C [3]: 100 % of control
- T/C [4]: 99 % of control
- T/C [5]: 88 % of control
- T/C [19]: 88 % of control
- T/C (dose: 800.0 mg/kg/injection, schedule: Q01DX009 (ip), vehicle: saline with Tween-80): 87 % of control
